The results in this text go back to ChEMBL document CHEMBL2163249, “Exploration of natural compounds as sources of new bifunctional scaffolds targeting cholinesterases and beta amyloid aggregation: the case of chelerythrine” (Bioorg Med Chem, 2012).

Experiment [1] has as its target Acetylcholinesterase (Electrophorus electricus) (UniProt O42275). Particulars: at 2 mg/mL.
Description: Inhibition of electric eel AChE at 2 mg/ml by Ellman's method
In experiment [2] the target is Cholinesterase (Equus caballus) (UniProt P81908). To be noted: at 2 mg/mL.
Chain of Cholinesterase (Equus caballus) (P81908 whole entry): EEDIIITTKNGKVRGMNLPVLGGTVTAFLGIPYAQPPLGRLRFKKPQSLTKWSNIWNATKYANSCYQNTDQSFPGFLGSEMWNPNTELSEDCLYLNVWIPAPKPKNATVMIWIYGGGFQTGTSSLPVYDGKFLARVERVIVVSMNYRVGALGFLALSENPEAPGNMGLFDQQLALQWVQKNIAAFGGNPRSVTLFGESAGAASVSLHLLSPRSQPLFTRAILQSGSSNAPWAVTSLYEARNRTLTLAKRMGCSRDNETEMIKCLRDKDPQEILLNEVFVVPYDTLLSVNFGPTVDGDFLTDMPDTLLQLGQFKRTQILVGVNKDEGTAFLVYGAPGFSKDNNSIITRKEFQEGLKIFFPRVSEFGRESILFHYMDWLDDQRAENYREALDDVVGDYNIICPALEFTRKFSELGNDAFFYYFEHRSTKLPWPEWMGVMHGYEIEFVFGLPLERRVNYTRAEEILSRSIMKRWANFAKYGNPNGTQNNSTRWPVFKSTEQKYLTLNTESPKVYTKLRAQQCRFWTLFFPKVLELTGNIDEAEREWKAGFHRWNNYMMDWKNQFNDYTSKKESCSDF
Description: Inhibition of horse BChE at 2 mg/ml by Ellman's method

Chain of Acetylcholinesterase (Electrophorus electricus) (O42275 24-633 limits assumed): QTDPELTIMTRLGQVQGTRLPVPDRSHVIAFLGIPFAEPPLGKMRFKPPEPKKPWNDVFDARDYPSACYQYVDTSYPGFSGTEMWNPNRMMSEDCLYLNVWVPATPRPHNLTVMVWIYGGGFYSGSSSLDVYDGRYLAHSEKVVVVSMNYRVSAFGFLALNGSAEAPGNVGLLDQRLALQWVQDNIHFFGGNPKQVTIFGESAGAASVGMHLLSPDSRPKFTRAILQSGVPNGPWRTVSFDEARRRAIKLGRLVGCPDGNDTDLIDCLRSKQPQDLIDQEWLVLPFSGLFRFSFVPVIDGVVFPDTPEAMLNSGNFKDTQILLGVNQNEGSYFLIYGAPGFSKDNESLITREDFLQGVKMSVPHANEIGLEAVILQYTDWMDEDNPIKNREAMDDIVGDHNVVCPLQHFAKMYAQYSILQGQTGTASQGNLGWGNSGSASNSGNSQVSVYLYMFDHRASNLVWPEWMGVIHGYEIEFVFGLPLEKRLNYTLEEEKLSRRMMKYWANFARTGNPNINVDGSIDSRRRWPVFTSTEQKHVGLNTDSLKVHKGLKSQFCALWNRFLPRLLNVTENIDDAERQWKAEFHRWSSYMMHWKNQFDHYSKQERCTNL

As for `CC[C@@H](C)C(=O)O[C@H]1[C@H](O)[C@H]2[C@@H](CN3C[C@@H](C)CC[C@H]3[C@@]2(C)O)[C@@H]2C[C@]34O[C@]5(O)[C@@H](OC(=O)[C@](C)(O)[C@@H](C)O)CC[C@@]3(C)[C@@H]5[C@@H](OC(C)=O)[C@@H](OC(C)=O)[C@H]4[C@@]21O`, the inhibition – broadly, the relative decrease from the control value, in per cent – is -5.22% in experiment [1] and -0.35% in experiment [2].

Consider `CCN1C[C@]2(OC(=O)c3ccccc3NC(C)=O)CC[C@H](OC)[C@@]34[C@@H]2C[C@@H]([C@@H]13)[C@@]1(O)C[C@H](OC)[C@H]2C[C@@H]4[C@]1(O)[C@H]2OC`, for which the figures for the inhibition in experiment [1] and in experiment [2] were 1.48% and -7.41%, respectively.

Take `O=c1c(O)c(-c2ccc(O)c(O)c2)oc2cc(O)cc(O)c12`: the inhibition in experiment [1] is 18.1%; in experiment [2] it was 6.73%.

In the case of `CC[C@@H](C)[C@@H](O)[C@H](C)C(=O)[C@H](C)/C=C(\C)C[C@H](C)[C@@H]1OC(=O)[C@H]1CC`, the figures for the inhibition in experiment [1] and in experiment [2] were 2.88% and 99.8%, respectively.

Consider `c1cncc([C@@H]2CCCCN2)c1`, for which the inhibition in experiment [1] was 0.25%.

Regarding `CC[C@H]1CC[C@@]2(C)CN(CC)[C@@H]3[C@@H]4[C@@H](O)[C@H]2[C@@]13[C@@H]1C[C@@H]2CC[C@@]4(O)[C@H]1C(=O)O2`, the figures for the inhibition in experiment [1] and in experiment [2] were 22.5% and -3.58%, respectively.

`CCCCCCCCCCCC1=C(O)C(=O)C=C(O)C1=O`: in experiment [2], the inhibition was found to be 1.24%.

Take `COC1=CC(=O)O[C@@H](/C=C/c2ccc3c(c2)OCO3)C1`: the figures for the inhibition in experiment [1] and in experiment [2] were -4.34% and 0.15%, respectively.

Take `COc1ccc(C[C@H](N)C(=O)N[C@H]2[C@@H](O)[C@H](n3cnc4c(N(C)C)ncnc43)O[C@@H]2CO)cc1`: the inhibition in experiment [1] was -7.92%; in experiment [2], -9.98%.

As to `O=c1oc2c(O)c(O)cc3c(=O)oc4c(O)c(O)cc1c4c23`, the figures for the inhibition in experiment [1] and in experiment [2] were -6.13% and 4.4%, respectively.

Turning to `C[C@@H]1Cc2c(Cl)cc(C(=O)N[C@@H](Cc3ccccc3)C(=O)O)c(O)c2C(=O)O1`, the inhibition in experiment [1] was -6.4%; in experiment [2] it was 8.75%.

For `COC[C@H]1OC(=O)c2coc3c2[C@@]1(C)C1=C(C3=O)[C@@H]2CCC(=O)[C@@]2(C)C[C@H]1OC(C)=O`, the inhibition is 16.2% in experiment [1] and -6.29% in experiment [2].

Take `C=C(C)[C@@H]1CC[C@]2(C(=O)O)CC[C@]3(C)[C@H](CC[C@@H]4[C@@]5(C)CC[C@H](O)C(C)(C)[C@@H]5CC[C@]43C)[C@@H]12`: the inhibition in experiment [1] is -5.33%; in experiment [2], 2.88%.

Regarding `Cc1cc(Cc2cc(C)cc(C(C)(C)C)c2O)c(O)c(C(C)(C)C)c1`, the figures for the inhibition in experiment [1] and in experiment [2] were -4.45% and 0.28%, respectively.

`CCCCCCCCCCC[C@@H](C[C@@H]1OC(=O)[C@H]1CCCCCC)OC(=O)[C@H](CC(C)C)NC=O`: the inhibition in experiment [1] is -6.52%; in experiment [2], 7.43%.

Consider `CN1CCC[C@H]1c1cccnc1`, for which the inhibition is 15.6% in experiment [1] and 1.2% in experiment [2].

On to `CC(C)(O)CC[C@@H](O)[C@](C)(O)[C@H]1CC[C@@]2(O)C3=CC(=O)[C@@H]4C[C@@H](O)[C@@H](O)C[C@]4(C)[C@H]3CC[C@]12C`, for which the inhibition was 3.26% in experiment [1] and -3.01% in experiment [2].

Take `O=C1C[C@@H](c2ccc(O)c(O)c2)Oc2cc(O)cc(O)c21`: the results for the inhibition in experiment [1] and in experiment [2] were 20.2% and -0.11%, respectively.

On to `CC(C)=CCC[C@](C)(O)[C@H]1CC[C@]2(C)[C@@H]1CC[C@@H]1[C@@]3(C)CCC(=O)C(C)(C)[C@@H]3CC[C@]12C`, for which, in experiment [2], the inhibition was -2.48%.

For the compound `COC1=CC(=O)OC(/C=C/c2ccccc2)C1` (racemic), the inhibition in experiment [2] was -2.41%.

As to `OC[C@@H]1[C@@H](O)[C@H](O)[C@H]2[C@@H](O)CCN21`, in experiment [2], the inhibition was determined as 1.12%.

Regarding `C=C1O[C@@](CO)(n2cnc3c(N)ncnc32)[C@H](O)[C@@H]1O`, in experiment [2], the inhibition is -3.01%.

For `O=C(O[C@@H]1Cc2c(O)cc(O)cc2O[C@@H]1c1cc(O)c(O)c(O)c1)c1cc(O)c(O)c(O)c1`, the inhibition in experiment [2] was -4.27%.

Regarding `CC[C@@]1([C@@H]2O[C@@H]([C@H]3O[C@@](O)(CO)[C@H](C)C[C@@H]3C)C[C@@H]2C)CC[C@H]([C@]2(C)CC[C@]3(C[C@H](O)[C@@H](C)[C@@H]([C@@H](C)[C@@H](OC)[C@H](C)C(=O)O)O3)O2)O1`, in experiment [2], the inhibition was determined as 2.48%.

`CS[C@H]1SC[C@H]2C(=O)N(C)[C@@H](C(C)C)C(=O)OC[C@@H](NC(=O)c3cnc4ccccc4n3)C(=O)N[C@@H](C)C(=O)N(C)[C@@H]1C(=O)N(C)[C@@H](C(C)C)C(=O)OC[C@@H](NC(=O)c1cnc3ccccc3n1)C(=O)N[C@@H](C)C(=O)N2C`: the inhibition in experiment [2] is -7.37%.

`O=C1c2ccc(O)cc2O[C@@H](c2cc(O)c(O)c(O)c2)[C@@H]1O`: in experiment [1], the inhibition is 4.04%.

As to `c1ccc2c3c([nH]c2c1)CNCC3`, in experiment [2], the inhibition was -5.97%.

Take `CC1(C)O[C@H]2CC(=O)OC[C@]23[C@H]2CC[C@@]4(C)[C@H](c5ccoc5)OC(=O)[C@H]5O[C@]54[C@]2(C)C(=O)C[C@@H]13`: the inhibition in experiment [1] is -0.85%.

`OCC1=C[C@@H](O)[C@@H]2C=CO[C@@H](O[C@@H]3O[C@H](CO)[C@@H](O)[C@H](O)[C@H]3O)[C@H]12`: the inhibition in experiment [1] is -1.28%.

As to `CNc1ccc2oc(C[C@H]3O[C@@]4(CC[C@H]3C)O[C@H]([C@H](C)C(=O)c3ccc[nH]3)[C@H](C)C[C@H]4C)nc2c1C(=O)O`, the inhibition in experiment [2] is -3.34%.

On to `COc1cccc2c1cc([N+](=O)[O-])c1c(C(=O)O)cc3c(c12)OCO3`, for which, in experiment [2], the inhibition amounted to 22.7%.

On to `CNC(=O)Oc1ccc2c(c1)[C@]1(C)CCN(C)[C@@H]1N2C`, for which, in experiment [2], the inhibition came out at 88%.

Consider `CC[C@@H](CO)NC(=O)[C@@H]1C=C2c3cccc4[nH]cc(c34)C[C@H]2N(C)C1`, for which the inhibition in experiment [1] is 6.45%.

For the compound `C[C@@H]1C(=O)O[C@H]2C[C@@]34[C@H]5C[C@@H](C(C)(C)C)[C@]36[C@@H](OC(=O)[C@@H]6O)O[C@@]4(C(=O)O5)[C@]21O`, the inhibition in experiment [1] was determined as 6.97%.

Turning to `CC(C)(C)[C@]1(O)CC2OC(=O)CC23C(=O)OC2OC(=O)[C@H](O)C231` (stereo not given in full), in experiment [2], the inhibition worked out at 10.9%.

For the compound `COc1ccc2c3c1O[C@H]1C[C@@H](O)C=C[C@@]31CCN(C)C2`, the inhibition in experiment [2] turned out to be 37.8%.

Regarding `COc1ccc(Cc2nccc3cc(OC)c(OC)cc23)cc1OC`, the inhibition in experiment [1] was 35%.

In the case of `C=C1CC[C@@H]2O[C@]2(C)CC[C@@H]2[C@@H]1CC2(C)C`, the inhibition in experiment [2] was 1.64%.

With `C=C[C@@]1(C)CC(=O)[C@]2(O)[C@@]3(C)[C@@H](O)CCC(C)(C)[C@@H]3[C@H](O)[C@H](OC(C)=O)[C@@]2(C)O1`, the inhibition in experiment [2] was found to be 1.35%.

As for `CC(=O)OC[C@@]1(O)C[C@@]23CC[C@@H]4c5ccoc5CC[C@@]4(C)[C@@H]2CC[C@@H]1C3`, the inhibition in experiment [1] was -6.2%.

`CC1=CC(=O)CC(C)(C)C1(O)/C=C/C(C)=C\C(=O)O` (racemic): the inhibition in experiment [2] was -4.4%.

As to `C[C@@H]1C[C@@H]([C@H](O)CC2CC(=O)NC(=O)C2)C(=O)[C@@H](C)C1`, the inhibition in experiment [2] was -2.08%.

On to `CC(=O)O[C@@]12C[C@@H](C)[C@@]3(O)[C@@H](C=C(CO)C[C@]4(O)C(=O)C(C)=C[C@@H]34)[C@@H]1C2(C)C`, for which, in experiment [2], the inhibition was 3.93%.

`COc1ccc([C@@H]2CC(=O)c3c(O)cc(O[C@@H]4O[C@H](CO[C@@H]5O[C@@H](C)[C@H](O)[C@@H](O)[C@H]5O)[C@@H](O)[C@H](O)[C@H]4O)cc3O2)cc1O`: the inhibition in experiment [1] is -4.26%.

`CN1C(=O)[C@]23CC4=CC=C[C@H](O)[C@H]4N2C(=O)[C@@]1(CO)SS3`: the inhibition in experiment [2] is 10.3%.

Take `CCCCCC[C@@H]1[C@@H](OC(=O)C(C)C)[C@H](C)O[C@@H](O)[C@@H](N[C@H](O)c2cccc(NC=O)c2O)[C@@H](C)O[C@H]1O`: in experiment [1], the inhibition is -2.88%.

Turning to `C[C@@]12C=Cc3occc3[C@H]1CC[C@]13CC(=O)[C@H](CC[C@H]12)C3`, the inhibition in experiment [1] was found to be 8.34%.

With `CC1=C(C(=O)O)N2C(=O)[C@@H](NC(=O)[C@H](N)C3=CCC=CC3)[C@H]2SC1`, in experiment [1], the inhibition is -0.38%.

In the case of `Clc1ccc(C2CC3CCC2N3)cn1` (racemic), in experiment [2], the inhibition was 5.32%.

With `O[C@H]1[C@H](O)[C@@H](O)CN2CC[C@H](O)[C@H]12`, the inhibition in experiment [2] was found to be 0.79%.

On to `O=c1c2ccccc2nc2n1CCc1c-2[nH]c2ccccc12`, for which the inhibition in experiment [1] was -4%.

Consider `CC[C@@H](C(=O)O)[C@@H]1O[C@@H]([C@@H](C)[C@H](O)[C@H](C)C(=O)[C@H](CC)[C@H]2O[C@]3(C=C[C@@H](O)[C@]4(CC[C@@](C)([C@H]5CC[C@](O)(CC)[C@H](C)O5)O4)O3)[C@H](C)C[C@@H]2C)[C@@H](C)C[C@@H]1C`, for which the inhibition in experiment [1] is -1.36%.

For the compound `Nc1ncnc2c1ccn2[C@@H]1O[C@H](CO)[C@@H](O)[C@H]1O`, in experiment [1], the inhibition amounted to 4.48%.

In the case of `Cc1cc2c(C(C)C)c(O)c(O)c(C=O)c2c(O)c1-c1c(C)cc2c(C(C)C)c(O)c(O)c(C=O)c2c1O`, the inhibition in experiment [2] was -2.11%.

For the compound `O=C(O)/C=C/c1c[nH]c2ccccc12`, in experiment [2], the inhibition was 4.54%.

`COc1ccc2c(c1O)-c1c(OC)c(OC)cc3c1[C@H](C2)N(C)CC3`: in experiment [1], the inhibition is -6.07%.

As for `CCCCCCCCCCCCCC/C(C(=O)O)=C(\C)C(=O)O`, the inhibition in experiment [2] stood at 9.23%.

As to `CO[C@H]1[C@H](OC(=O)c2ccc(C)[nH]2)[C@H](O)[C@@H](Oc2ccc3c(O)c(NC(=O)c4c[nH]c(C(=O)Nc5c(O)c6ccc(O[C@H]7OC(C)(C)[C@@H](OC)[C@H](OC(=O)c8ccc(C)[nH]8)[C@@H]7O)c(C)c6oc5=O)c4C)c(=O)oc3c2C)OC1(C)C`, the inhibition in experiment [2] was 3.14%.

As to `CC(=O)OCC1=C[C@H]2[C@@H]3C(C)(C)[C@]3(OC(=O)Cc3ccccc3)C[C@@H](C)[C@]2(O)[C@@H]2C=C(C)C(=O)[C@@]2(O)C1`, in experiment [2], the inhibition turned out to be 6.06%.

Consider `C/C(=C/C=C/[C@@H](C)C(=O)O)[C@H]1CN[C@H](C(=O)O)[C@H]1CC(=O)O`, for which, in experiment [2], the inhibition is 2.83%.

Turning to `CC(C)=CCC/C(C)=C/CC/C(C)=C/CC/C(C)=C/CC/C(C)=C/CC/C(C)=C/CC/C(C)=C/CC/C(C)=C/CC/C(C)=C/CO`, in experiment [1], the inhibition is -1.74%.

For the compound `O=C(O)CCCc1c[nH]c2ccccc12`, the inhibition in experiment [2] was -5.54%.

As for `COc1ccc([C@@H]2OC[C@@H]3[C@H]2CO[C@H]3c2ccc(OC)c(OC)c2)cc1OC`, the inhibition in experiment [2] was 0.02%.

Consider `CC(=O)C1=C(O)[C@@H]2[C@H]3c4c[nH]c5cccc(c45)C[C@H]3C(C)(C)N2C1=O`, for which the inhibition in experiment [2] was found to be 6.85%.
